From patent US8648103B2, “Nitrogen-containing aromatic heterocyclyl compound” (Daiichi Sankyo Company, Limited, priority 2008, dated 2014)

These compounds were tested on Human subcutaneous adipocytes (assay: Adipocyte lipolysis assay (suppression of isoproterenol-stimulated fatty acid release)). Conditions: Homo sapiens, Adipocyte; test compound concentration giving 50% fatty acid concentration reduction percentage in culture supernatant; 1 μM isoproterenol, 5 hours incubation; reduction by 100 μM nicotinic acid set at 100%.
Format: cell-based
Text: The suppressive or promoting activity of a test compound on the lipolysis of neutral fat can be assayed according to an adipocyte lipolysis assay as a cell line assay. If a beta adrenoceptor is stimulated with isoproterenol or the like in adipocytes, lipolysis action in which neutral fat accumulated in the cells is decomposed into fatty acid and glycerol can be promoted, and as a result, the amount of such fatty acid or glycerol released out of the cells can be increased. When a test compound that suppresses lipolysis is added to adipocytes, lipolysis-promoting action by isoproterenol stimulation is reduced, and the concentration of fatty acid or glycerol in a medium is decreased. Accordingly, the suppressive activity of a test compound on lipolysis can be assayed by measuring the reduction percentage of the fatty acid concentration or glycerol concentration in a culture supernatant. Likewise, the promoting activity of a test compound on lipolysis can be assayed by measuring the increase percentage of the fatty acid concentration or glycerol concentration in a medium.
• (1) Human subcutaneous adipocytes disseminated onto a 96 well (Dainippon Sumitomo Pharma Co., Ltd.: F-SA-1096) • (2) Adipocyte Maintenance Medium (Dainippon Sumitomo Pharma Co., Ltd.: AM 1) • (3) Lipolysis assay buffer [137 mM NaCl, 5 mM KCl, 4.2 mM NaHCO3, 1.3 mM CaCl2, 0.5 mM KH2PO4, 0.5 mM MgCl2, 0.5 mM MgSO4, 5 mM Glucose, 20 mM Hepes (pH 7.4), 1% BSA, 1 μM Isoproterenol] • (4) NEFA-C Test Wako (Wako Pure Chemical Industries, Ltd.) Preparation of Screening Materials
In this operation, the actual concentration of the test compound in the buffer was 1/1000 of the above-described concentration.
The above-described subcutaneous adipocytes were cultured in 200 μL of an Adipocyte Maintenance Medium in each well for 7 days. During this culturing operation, the medium was exchanged with a fresh one every 3 days. The medium was exchanged by discarding 100 μL of the medium in each well and then adding 100 μL of a fresh Adipocyte Maintenance Medium to the well. Thereafter, the adipocytes were washed with a Lipolysis assay buffer. Subsequently, 50 μL of a Lipolysis assay buffer that contained the above-described test compound was added to each well, and it was then incubated for 5 hours. In order to obtain the measurement value of the test compound in each concentration, 5 wells on a 96-well plate were used with respect to each concentration. As a positive control of a compound having lipolysis suppressive activity, nicotinic acid was used with reference to a previous report [Green A et. al., J. Biol. Chem., 1992, 267(5), 3223-9].
40 μL of a culture supernatant was extracted from each well, and the fatty acid concentration in the supernatant was then measured. Such fatty acid concentration was measured as follows, using the above-described NEFA-C Test Wako. 80 μL of liquid A included in the kit was added to 40 μL of the culture supernatant extracted from each well, and the obtained mixture was then incubated at 37° C. for 10 minutes. Thereafter, 160 μL of liquid B was added, and the obtained mixture was further incubated at 37° C. for 10 minutes. Thereafter, the absorbance at a wavelength of 550 nm was measured. At the same time, a standard fatty acid solution included in the kit was diluted to prepare a dilution series having a volume of 40 μL. According to the same operations as described above, liquid A and liquid B were added, and the absorbance was then measured. In accordance with instructions included with the kit, a calibration curve was prepared. Based on the thus prepared calibration curve, the fatty acid concentration in the culture supernatant was calculated. The reduction percentage of the fatty acid concentration was calculated with the following formula, setting the reduction percentage obtained by addition of 100 μM (final concentration) of nicotinic acid at 100%. […]

Row | IC50 | SMILES
1 | 42 nM | CCn1cc(NC(=O)CCc2cnn(-c3ccccc3)c2C2CC2)c(C(=O)O)c1 [Example 29]
2 | 29 nM | CCn1cc(NC(=O)C(F)Cc2cnc(-c3ccc(O)cc3)s2)c(C(=O)O)c1 (racemic) [Example 22, 4-{3-[2-(4-Hydroxyphenyl)thiazol-5-yl]-2-fluoropropanoyl}amino-1-ethylpyrrole-3-carboxylic acid]
3 | 93 nM | CCn1cc(NC(=O)CCc2cnc(-c3ccc(O)cc3C)s2)c(C(=O)O)c1 [Example 19, 4-{3-[2-(4-Hydroxy-2-methylphenyl)thiazol-5-yl]propanoyl}amino-1-ethylpyrrole-3-carboxylic acid]
4 | 10 nM | CCn1cc(NC(=O)C(F)Cc2cnn(-c3ccccc3)c2C)c(C(=O)O)c1 (centres unmarked) [Example 26, 4-[2-Fluoro-3-(5-methyl-1-phenylpyrazol-5-yl)propanoyl]amino-1-ethylpyrrole-3-carboxylic acid]
5 | 19 nM | CCc1c(-c2ccccc2)ncn1CCC(=O)Nc1cn(CC)cc1C(=O)O [Example 28, 4-{3-(4-Phenyl-5-ethylimidazol-1-yl)propanoyl}amino-1-ethylpyrrole-3-carboxylic acid]
6 | 8 nM | CCCCn1cc(NC(=O)CCc2cc(-c3ccc(O)cc3)no2)c(C(=O)O)c1 [Example 47, 4-{3-[3-(4-Hydroxyphenyl)isoxazol-5-yl]propanoyl}amino-1-butylpyrrole-3-carboxylic acid]
7 | 2 nM | O=C(CCc1nc(-c2ccc(O)cn2)no1)Nc1cn(Cc2cc(F)cc(F)c2)cc1C(=O)O [Example 15, 4-{3-[(5-Hydroxypyridin-2-yl)-1,2,4-oxadiazol-5-yl]propanoyl}amino-1-(3,5-difluorobenzyl)pyrrole-3-carboxylic acid]
8 | 1500 nM | Cn1cc(NC(=O)CCc2sc(-c3ccccc3)nc2Cl)c(C(=O)O)c1 [Example 7, 4-[3-(4-Chloro-2-phenylthiazol-5-yl)propanoyl]amino-1-methylpyrrole-3-carboxylic acid]
9 | 41 nM | CCn1cc(NC(=O)CCc2sc(-c3ccc(O)cc3O)nc2Cl)c(C(=O)O)c1 [Example 21, 4-{3-[4-Chloro-2-(2,4-dihydroxyphenyl)thiazol-5-yl]propanoyl}amino-1-ethylpyrrole-3-carboxylic acid]
10 | 232 nM | Cn1cc(NC(=O)CCc2cnc(-c3ccc(O)cc3)o2)c(C(=O)O)c1 [Example 4, 4-{3-[2-(4-Hydroxyphenyl)oxazol-5-yl]propanoyl}amino-1-methylpyrrole-3-carboxylic acid]
11 | 76 nM | Cn1cc(NC(=O)CCc2sc(-c3ccc(O)cc3)nc2Cl)c(C(=O)O)c1 [Example 8, 4-{3-[4-Chloro-2-(4-hydroxyphenyl)thiazol-5-yl]propanoyl}amino-1-methylpyrrole-3-carboxylic acid]
12 | 1100 nM | Cn1cc(NC(=O)CCc2ccc(-c3ccc(O)cc3)cc2)c(C(=O)O)c1 [Example 1, 4-{3-[4-(4-Hydroxyphenyl)phenyl]propanoyl}amino-1-methylpyrrole-3-carboxylic acid]
13 | 8 nM | CCc1c(-c2ccc(O)cc2)noc1CCC(=O)Nc1cn(CC)cc1C(=O)O [Example 35, 4-{3-[4-Ethyl-(4-hydroxyphenyl)isoxazol-5-yl]propanoyl}amino-1-ethylpyrrole-3-carboxylic acid]
14 | 125 nM | Cn1cc(NC(=O)CCc2cnc(-c3ccc(O)c(F)c3)s2)c(C(=O)O)c1 [Example 9, 4-{3-[2-(4-Hydroxy-3-fluorophenyl)thiazol-5-yl]propanoyl}amino-1-methylpyrrole-3-carboxylic acid]
15 | 29 nM | CCn1cc(NC(=O)C(F)(F)Cc2cc(-c3ccc(O)cc3)on2)c(C(=O)O)c1 [Example 64, 4-{3-[5-(4-Hydroxyphenyl)isoxazol-3-yl]-2,2-difluoropropanoyl}amino-1-ethylpyrrole-3-carboxylic acid]
16 | 20 nM | CCn1cc(NC(=O)CCn2cnc(-c3ccccc3)c2C)c(C(=O)O)c1 [Example 24, 4-{3-(4-Phenyl-5-methylimidazol-1-yl)propanoyl}amino-1-ethylpyrrole-3-carboxylic acid]
17 | 1000 nM | CC(C)n1cc(NC(=O)CCc2nc(-c3ccc(O)cn3)no2)c(C(=O)O)c1 [Example 48, 4-{3-[3-(5-Hydroxypyridin-2-yl)-1,2,4-oxadiazol-5-yl]propanoyl}amino-1-isopropylpyrrole-3-carboxylic acid]
18 | 13 nM | CCn1cc(NC(=O)C(F)(F)Cc2cc(-c3ccc(O)cc3)no2)c(C(=O)O)c1 [Example 63, 4-{3-[3-(4-Hydroxyphenyl)isoxazol-5-yl]-2,2-difluoropropanoyl}amino-1-ethylpyrrole-3-carboxylic acid]
19 | 8 nM | CCn1cc(NC(=O)CCc2cc(-c3ccc(O)cc3)no2)c(C(=O)O)c1 [Example 44, 4-{3-[3-(4-Hydroxyphenyl)isoxazol-5-yl]propanoyl}amino-1-ethylpyrrole-3-carboxylic acid]
20 | 771 nM | CCCCn1cc(NC(=O)CCc2nc(-c3ccc(O)cc3)no2)c(C(=O)O)c1Cl [Example 52, 4-{3-[3-(4-Hydroxyphenyl)-1,2,4-oxadiazol-5-yl]propanoyl}amino-2-chloro-1-butylpyrrole-3-carboxylic acid]
21 | 255 nM | O=C(CCc1cnc(-c2ccccc2)s1)Nc1cn(CCF)cc1C(=O)O [Example 14, 4-[3-(2-Phenylthiazol-5-yl)propanoyl]amino-1-(2-fluoroethyl)pyrrole-3-carboxylic acid]
22 | 135 nM | O=C(CCc1nc(-c2ccc(O)cc2)no1)Nc1cn(Cc2ccccc2)cc1C(=O)O [Example 49, 4-{3-[3-(4-Hydroxyphenyl)-1,2,4-oxadiazol-5-yl]propanoyl}amino-1-benzylpyrrole-3-carboxylic acid]
23 | 29 nM | O=C(CCc1nc(-c2ccc(O)cc2)no1)Nc1cn(Cc2cc(F)cc(F)c2)cc1C(=O)O [Example 16, 4-{3-[(4-Hydroxyphenyl)-1,2,4-oxadiazol-5-yl]propanoyl}amino-1-(3,5-difluorobenzyl)pyrrole-3-carboxylic acid]
24 | 72 nM | CCc1c(-c2ccc(O)cc2)nsc1CCC(=O)Nc1cn(CC)cc1C(=O)O [Example 58, 4-{3-[4-Ethyl-3-(4-hydroxyphenyl)isothiazol-5-yl]propanoylamino}-1-ethylpyrrole-3-carboxylic acid]
25 | 7 nM | CCn1cc(NC(=O)CCc2onc(-c3ccc(O)cc3F)c2Cl)c(C(=O)O)c1 [Example 43, 4-{3-[4-Chloro-3-(4-hydroxy-2-fluorophenyl)isoxazol-5-yl]propanoyl}amino-1-ethylpyrrole-3-carboxylic acid]
26 | 18 nM | CCn1cc(NC(=O)CCc2onc(-c3ccc(O)cc3)c2C(F)F)c(C(=O)O)c1 [Example 65, 4-{3-[4-Difluoromethyl-3-(4-hydroxyphenyl)isoxazol-5-yl]propanoyl}amino-1-ethylpyrrole-3-carboxylic acid]
27 | 10 nM | CCc1c(-c2ccc(O)cn2)noc1CC(F)(F)C(=O)Nc1cn(CC)cc1C(=O)O [Example 66, 4-{3-[4-Ethyl-3-(5-hydroxypyridin-2-yl)isoxazol-5-yl]-2,2-difluoropropanoyl}amino-1-ethylpyrrole-3-carboxylic acid]
28 | 9 nM | CCc1c(-c2ccc(O)cc2F)noc1CCC(=O)Nc1cn(CC)cc1C(=O)O [Example 45, 4-{3-[4-Ethyl-3-(4-hydroxy-2-fluorophenyl)isoxazol-5-yl]propanoyl}amino-1-ethylpyrrole-3-carboxylic acid]

Same assay, conditions: test compound concentration giving 50% fatty acid concentration reduction percentage in culture supernatant; 1 μM isoproterenol, 5 hours incubation; reduction by 100 μM nicotinic acid set at 100%

Row | IC50 | SMILES
29 | 103 nM | CCn1cc(NC(=O)C(F)Cc2cnc(-c3ccc(O)cc3)s2)c(C(=O)O)c1 (single isomer, unassigned; (+)) [Example 23b, (+)-4-{3-[2-(4-Hydroxyphenyl)thiazol-5-yl]-2-fluoropropanoyl}amino-1-ethylpyrrole-3-carboxylic acid]
